The NIST ThermoML archive (doi:10.1021/acs.jced.9b00752)
“And” between values parts separate entries of the source, which are not always exact repeats. Identical values can stand only once.

Assay: mn = molality of the nth substance listed, in mol/kg
Details: 100 kPa, Liquid, Vibrating tube method

N[C@@H](Cc1ccc(O)cc1)C(=O)O [3-(p-hydroxyphenyl)-L-alanine] + O
mass density
Details | 278.65 K | 279.15 K | 279.65 K | 280.15 K | 280.65 K | 281.15 K | 281.65 K | 282.15 K | 282.65 K | 283.15 K
m1 = 0.0005 | 999.962 kg/m3 | 999.948 kg/m3 | 999.932 kg/m3 | 999.91 kg/m3 | 999.886 kg/m3 | 999.858 kg/m3 | 999.824 kg/m3 | 999.79 kg/m3 | 999.751 kg/m3 | 999.71 kg/m3
m1 = 0.001 | 999.995 kg/m3 | 999.981 kg/m3 | 999.964 kg/m3 | 999.941 kg/m3 | 999.918 kg/m3 | 999.89 kg/m3 | 999.857 kg/m3 | 999.821 kg/m3 | 999.781 kg/m3 | 999.741 kg/m3
m1 = 0.0011 | 1000.02 kg/m3 | 1000.01 kg/m3 | 999.989 kg/m3 | 999.968 kg/m3 | 999.946 kg/m3 | 999.917 kg/m3 | 999.883 kg/m3 | 999.848 kg/m3 | 999.809 kg/m3 | 999.765 kg/m3
m1 = 0.0022 | 1000.09 kg/m3 | 1000.08 kg/m3 | 1000.06 kg/m3 | 1000.04 kg/m3 | 1000.01 kg/m3 | 999.984 kg/m3 | 999.951 kg/m3 | 999.916 kg/m3 | 999.876 kg/m3 | 999.835 kg/m3
m1 = 0.0026 | 1000.11 kg/m3 | 1000.1 kg/m3 | 1000.08 kg/m3 | 1000.06 kg/m3 | 1000.03 kg/m3 | 1000 kg/m3 | 999.971 kg/m3 | 999.937 kg/m3 | 999.897 kg/m3 | 999.854 kg/m3
m1 = 0.0035 | 1000.18 kg/m3 | 1000.16 kg/m3 | 1000.14 kg/m3 | 1000.12 kg/m3 | 1000.1 kg/m3 | 1000.07 kg/m3 | 1000.03 kg/m3 | 1000 kg/m3 | 999.961 kg/m3 | 999.919 kg/m3
m1 = 0.0036 | 1000.18 kg/m3 | 1000.16 kg/m3 | 1000.14 kg/m3 | 1000.12 kg/m3 | 1000.1 kg/m3 | 1000.07 kg/m3 | 1000.04 kg/m3 | 1000 kg/m3 | 999.962 kg/m3 | 999.92 kg/m3
m1 = 0.0038 | 1000.18 kg/m3 | 1000.17 kg/m3 | 1000.15 kg/m3 | 1000.13 kg/m3 | 1000.1 kg/m3 | 1000.08 kg/m3 | 1000.04 kg/m3 | 1000.01 kg/m3 | 999.967 kg/m3 | 999.925 kg/m3
m1 = 0.0045 | 1000.23 kg/m3 and 1000.24 kg/m3 | 1000.22 kg/m3 and 1000.23 kg/m3 | 1000.2 kg/m3 and 1000.21 kg/m3 | 1000.18 kg/m3 and 1000.19 kg/m3 | 1000.15 kg/m3 and 1000.16 kg/m3 | 1000.13 kg/m3 and 1000.14 kg/m3 | 1000.09 kg/m3 and 1000.1 kg/m3 | 1000.06 kg/m3 and 1000.07 kg/m3 | 1000.02 kg/m3 and 1000.03 kg/m3 | 999.976 kg/m3 and 999.985 kg/m3
m1 = 0.0047 | 1000.24 kg/m3 | 1000.22 kg/m3 | 1000.21 kg/m3 | 1000.18 kg/m3 | 1000.16 kg/m3 | 1000.13 kg/m3 | 1000.1 kg/m3 | 1000.06 kg/m3 | 1000.02 kg/m3 | 999.98 kg/m3
m1 = 0.0053 | 1000.28 kg/m3 and 1000.29 kg/m3 | 1000.27 kg/m3 and 1000.28 kg/m3 | 1000.25 kg/m3 and 1000.26 kg/m3 | 1000.23 kg/m3 and 1000.24 kg/m3 | 1000.2 kg/m3 and 1000.21 kg/m3 | 1000.17 kg/m3 and 1000.18 kg/m3 | 1000.14 kg/m3 and 1000.15 kg/m3 | 1000.1 kg/m3 and 1000.12 kg/m3 | 1000.07 kg/m3 and 1000.08 kg/m3 | 1000.02 kg/m3 and 1000.03 kg/m3
m1 = 0.0055 | 1000.28 kg/m3 | 1000.27 kg/m3 | 1000.25 kg/m3 | 1000.23 kg/m3 | 1000.2 kg/m3 | 1000.17 kg/m3 | 1000.14 kg/m3 | 1000.1 kg/m3 | 1000.07 kg/m3 | 1000.02 kg/m3
